Assay results from ChEMBL document CHEMBL4152373 (Bioorg Med Chem, 2018).
The source made the active and inactive calls. The rule behind the calls is not given here.

Experiments:
[1] = Octanol-PBS buffer partition coefficient, log D of the compound at pH 7.4 by HPLC method
[2] = Fraction unbound in rat plasma at 5 uM after 4 hrs by equilibrium dialysis method
[3] = Fraction unbound in mouse plasma at 5 uM after 4 hrs by equilibrium dialysis method
[4] = system: Rattus norvegicus; experiment: Unbound clearance in Sprague-Dawley rat at 1 mg/kg, iv administered as single dose by LC-MS/MS analysis; format: ADME, organism-based; conditions: in vivo
[5] = Oral bioavailability in Sprague-Dawley rat at 3 mg/kg administered via gavage as single dose by LC-MS/MS analysis; format: ADME, organism-based; conditions: in vivo
[6] = system: Rattus norvegicus; experiment: Dose normalized unbound AUC in Sprague-Dawley rat at 3 mg/kg, po administered via gavage as single dose by LC-MS/MS analysis; format: ADME, organism-based; conditions: in vivo
[7] = system: Mus musculus; experiment: Dose normalized unbound AUC in C57Bl/6J mouse at 50 mg/kg, po administered via gavage as single dose by LC-MS/MS analysis; format: ADME, organism-based; conditions: in vivo
[8] = system: Mus musculus; experiment: Antidiabetic activity in C57Bl/6J mouse assessed as inhibition of blood glucose AUC (0 to 120 mins) at 50 mg/kg, po treated prior to glucose challenge by OGTT relative to control; format: functional
[9] = system: Mus musculus; experiment: Antidiabetic activity in FFA2R knock-out C57Bl/6J mouse assessed as inhibition of blood glucose AUC (0 to 120 mins) at […], po treated prior to glucose challenge by OGTT; format: functional, organism-based
[10] = target: Free fatty acid receptor 1 (Homo sapiens) (UniProt O14842); experiment: Antagonist activity at FFA1R (unknown origin) at 10 uM by aequorin based assay relative to control; format: functional
Sequence of Free fatty acid receptor 1 (Homo sapiens) (O14842 whole entry): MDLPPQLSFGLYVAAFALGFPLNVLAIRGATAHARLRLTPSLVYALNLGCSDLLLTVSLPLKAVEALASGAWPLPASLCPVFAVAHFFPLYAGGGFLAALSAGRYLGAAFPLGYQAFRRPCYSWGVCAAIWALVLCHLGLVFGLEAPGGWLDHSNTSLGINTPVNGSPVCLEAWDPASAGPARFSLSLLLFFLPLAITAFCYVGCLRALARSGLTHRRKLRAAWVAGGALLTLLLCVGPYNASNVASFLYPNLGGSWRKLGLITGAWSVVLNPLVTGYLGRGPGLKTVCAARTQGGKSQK

[11] = target: T1, Free fatty acid receptor 4 (Homo sapiens) (UniProt Q5NUL3); experiment: Antagonist activity at FFA4R (unknown origin) at 10 uM by aequorin based assay relative to control; format: functional
T1 sequence (whole entry): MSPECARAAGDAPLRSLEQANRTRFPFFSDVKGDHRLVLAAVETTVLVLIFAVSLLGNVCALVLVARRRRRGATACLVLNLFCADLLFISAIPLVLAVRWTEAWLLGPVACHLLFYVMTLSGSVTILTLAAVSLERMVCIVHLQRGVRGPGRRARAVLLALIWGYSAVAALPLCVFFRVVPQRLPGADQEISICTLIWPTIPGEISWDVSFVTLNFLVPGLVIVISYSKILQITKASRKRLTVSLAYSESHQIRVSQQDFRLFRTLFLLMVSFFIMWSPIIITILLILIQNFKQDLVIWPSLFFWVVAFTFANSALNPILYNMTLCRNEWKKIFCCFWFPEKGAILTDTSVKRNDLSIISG

[12] = target: Hydroxycarboxylic acid receptor 2 (Homo sapiens) (UniProt Q8TDS4); experiment: Agonist activity at GPR109a (unknown origin) at 10 uM by aequorin based assay relative to control; format: functional
Sequence of Hydroxycarboxylic acid receptor 2 (Homo sapiens) (Q8TDS4 whole entry): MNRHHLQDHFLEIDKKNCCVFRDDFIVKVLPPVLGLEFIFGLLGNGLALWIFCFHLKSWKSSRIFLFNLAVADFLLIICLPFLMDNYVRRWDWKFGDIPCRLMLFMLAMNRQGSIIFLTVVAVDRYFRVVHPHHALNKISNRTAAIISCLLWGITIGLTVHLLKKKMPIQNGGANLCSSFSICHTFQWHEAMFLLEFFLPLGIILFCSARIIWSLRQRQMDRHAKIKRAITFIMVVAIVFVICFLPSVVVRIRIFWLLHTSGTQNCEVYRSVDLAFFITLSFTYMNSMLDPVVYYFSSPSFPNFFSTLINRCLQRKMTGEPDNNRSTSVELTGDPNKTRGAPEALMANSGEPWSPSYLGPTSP

[13] = target: Hydroxycarboxylic acid receptor 2 (Homo sapiens) (UniProt Q8TDS4); experiment: Antagonist activity at GPR109a (unknown origin) at 10 uM by aequorin based assay relative to control; format: functional
[14] = target: Hydroxycarboxylic acid receptor 3 (Homo sapiens) (UniProt P49019); experiment: Antagonist activity at GPR109b (unknown origin) at 10 uM by aequorin based assay relative to control; format: functional
Sequence of Hydroxycarboxylic acid receptor 3 (Homo sapiens) (P49019 whole entry): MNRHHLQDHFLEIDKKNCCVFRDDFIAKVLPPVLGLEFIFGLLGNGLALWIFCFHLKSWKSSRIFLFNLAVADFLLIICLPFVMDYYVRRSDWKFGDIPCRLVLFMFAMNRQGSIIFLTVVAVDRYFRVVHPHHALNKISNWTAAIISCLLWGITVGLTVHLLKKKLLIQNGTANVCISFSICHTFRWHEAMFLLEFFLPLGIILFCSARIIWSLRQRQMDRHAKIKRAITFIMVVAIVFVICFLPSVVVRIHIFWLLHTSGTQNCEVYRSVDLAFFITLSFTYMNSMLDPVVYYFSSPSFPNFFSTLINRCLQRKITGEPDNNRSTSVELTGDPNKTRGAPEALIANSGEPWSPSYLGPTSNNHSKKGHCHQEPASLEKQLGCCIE

[15] = target: T2, Glucocorticoid receptor (Homo sapiens) (UniProt P04150); conditions: 10 uM
T2 sequence (whole entry): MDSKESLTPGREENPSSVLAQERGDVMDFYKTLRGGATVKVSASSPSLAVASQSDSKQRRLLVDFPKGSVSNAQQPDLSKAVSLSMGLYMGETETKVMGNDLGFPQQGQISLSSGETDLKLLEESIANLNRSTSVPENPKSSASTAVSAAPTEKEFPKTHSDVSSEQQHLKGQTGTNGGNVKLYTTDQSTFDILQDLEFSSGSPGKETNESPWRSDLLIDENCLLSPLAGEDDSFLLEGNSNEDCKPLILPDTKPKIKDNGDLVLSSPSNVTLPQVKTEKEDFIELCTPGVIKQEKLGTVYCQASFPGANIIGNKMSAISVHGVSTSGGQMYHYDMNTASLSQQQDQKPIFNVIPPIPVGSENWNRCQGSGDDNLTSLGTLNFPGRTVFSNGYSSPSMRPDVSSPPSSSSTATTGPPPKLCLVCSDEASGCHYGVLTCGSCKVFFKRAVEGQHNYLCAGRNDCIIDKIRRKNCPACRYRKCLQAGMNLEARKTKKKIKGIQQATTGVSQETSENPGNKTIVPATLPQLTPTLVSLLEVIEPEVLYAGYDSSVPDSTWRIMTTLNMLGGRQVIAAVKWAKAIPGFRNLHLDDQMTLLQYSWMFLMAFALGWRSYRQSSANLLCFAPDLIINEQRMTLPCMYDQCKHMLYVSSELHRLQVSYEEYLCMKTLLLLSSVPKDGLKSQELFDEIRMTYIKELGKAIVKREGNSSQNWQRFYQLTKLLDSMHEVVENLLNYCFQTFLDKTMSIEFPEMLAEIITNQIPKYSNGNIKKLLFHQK
Description: Antagonist activity at GCR (unknown origin) at 10 uM by cAMP accumulation based assay relative to control

[16] = target: Glucagon-like peptide 1 receptor (Homo sapiens) (UniProt P43220); conditions: 10 uM
Sequence of Glucagon-like peptide 1 receptor (Homo sapiens) (P43220 whole entry): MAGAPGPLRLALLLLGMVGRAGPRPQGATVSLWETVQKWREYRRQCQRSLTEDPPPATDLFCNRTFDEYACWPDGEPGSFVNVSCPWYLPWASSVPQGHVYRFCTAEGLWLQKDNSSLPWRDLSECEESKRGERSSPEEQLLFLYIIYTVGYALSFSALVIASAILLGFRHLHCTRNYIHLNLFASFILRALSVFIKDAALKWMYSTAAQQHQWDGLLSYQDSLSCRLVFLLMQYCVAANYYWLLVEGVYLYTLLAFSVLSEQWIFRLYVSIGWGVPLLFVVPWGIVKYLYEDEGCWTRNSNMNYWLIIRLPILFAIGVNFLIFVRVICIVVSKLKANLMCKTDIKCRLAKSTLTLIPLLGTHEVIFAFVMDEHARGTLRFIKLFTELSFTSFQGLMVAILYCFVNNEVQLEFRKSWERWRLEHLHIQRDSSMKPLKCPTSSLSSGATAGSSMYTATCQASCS
Description: Antagonist activity at GLP1R (unknown origin) at 10 uM by cAMP accumulation based assay relative to control

[17] = target: T3, Glucagon-like peptide 2 receptor (Homo sapiens) (UniProt O95838); conditions: 10 uM
T3 sequence (whole entry): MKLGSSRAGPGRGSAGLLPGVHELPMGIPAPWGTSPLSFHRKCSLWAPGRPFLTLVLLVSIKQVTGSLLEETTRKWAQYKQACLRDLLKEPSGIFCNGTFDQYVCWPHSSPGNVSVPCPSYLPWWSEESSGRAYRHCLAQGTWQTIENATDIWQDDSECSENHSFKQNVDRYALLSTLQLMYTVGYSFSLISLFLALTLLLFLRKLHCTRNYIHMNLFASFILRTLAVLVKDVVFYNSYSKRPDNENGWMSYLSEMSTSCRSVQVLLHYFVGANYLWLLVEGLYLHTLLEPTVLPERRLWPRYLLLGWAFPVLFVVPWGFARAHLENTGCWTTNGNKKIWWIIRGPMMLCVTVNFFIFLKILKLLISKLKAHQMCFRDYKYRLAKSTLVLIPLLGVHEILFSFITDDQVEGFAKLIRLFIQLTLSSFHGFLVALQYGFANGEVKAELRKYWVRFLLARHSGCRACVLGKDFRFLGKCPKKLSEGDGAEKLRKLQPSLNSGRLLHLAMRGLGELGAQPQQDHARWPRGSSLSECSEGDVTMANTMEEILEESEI
Description: Antagonist activity at GLP2R (unknown origin) at 10 uM by cAMP accumulation based assay relative to control

- logD [1]: 2.6
- fraction unbound at 4 h, 5 µM [2]: 0.0006
- fraction unbound at 4 h, 5 µM [3]: 0.0023
- CL free [4]: 2617 mL/min/kg
- bioavailability [5]: 47%
- fAUC/dose [6]: 0.29 µM·min
- fAUC/dose [7]: 2.1 µM·min
- inhibition [10]: 13%
- inhibition [11]: 16%
- Activity [12]: < 10%
- inhibition [13]: < 10%
- inhibition [14]: 22%
- inhibition [15]: < 10%
- inhibition [16]: < 10%
- inhibition [17]: < 10%
Compound: COc1ccc(-c2ccccc2-c2csc(N(C(=O)[C@@H](CC(=O)O)CC3CCCC3)C3CC3)n2)cn1
- inhibition in vivo at 50 mg/kg [8]: 33%
- inhibition [9]: Active
